Laboratory results reported in ChEMBL document CHEMBL1833969, “Synthesis and antigastric ulcer activity of novel 5-isoproyl-3,8-dimethylazulene derivatives” (2011).

Tests used:
Type in all cases: functional
Settings in all cases: Stomach
Mus musculus [1] = experiment: Antiulcerogenic activity in Kunming mouse assessed as inhibition of ethanol-induced gastric ulcer at 4.3 mg/kg, po qd for 5 days measured 1 hr post last dose relative to control
Mus musculus [2] = experiment: Antiulcerogenic activity in Kunming mouse assessed as inhibition of ethanol-induced gastric ulcer at 4.1 mg/kg, po qd for 5 days measured 1 hr post last dose relative to control
Mus musculus [3] = experiment: Antiulcerogenic activity in Kunming mouse assessed as inhibition of ethanol-induced gastric ulcer at 3.2 mg/kg, po qd for 5 days measured 1 hr post last dose relative to control
Mus musculus [4] = experiment: Antiulcerogenic activity in Kunming mouse assessed as inhibition of ethanol-induced gastric ulcer at 4 mg/kg, po qd for 5 days measured 1 hr post last dose relative to control
Mus musculus [5] = experiment: Antiulcerogenic activity in Kunming mouse assessed as inhibition of ethanol-induced gastric ulcer at 3.3 mg/kg, po qd for 5 days measured 1 hr post last dose relative to control
Mus musculus [6] = experiment: Antiulcerogenic activity in Kunming mouse assessed as inhibition of ethanol-induced gastric ulcer at 3.7 mg/kg, po qd for 5 days measured 1 hr post last dose relative to control
Mus musculus [7] = experiment: Antiulcerogenic activity in Kunming mouse assessed as inhibition of ethanol-induced gastric ulcer at 3.1 mg/kg, po qd for 5 days measured 1 hr post last dose relative to control
Mus musculus [8] = experiment: Antiulcerogenic activity in Kunming mouse assessed as inhibition of ethanol-induced gastric ulcer at 3.6 mg/kg, po qd for 5 days measured 1 hr post last dose relative to control
Mus musculus [9] = experiment: Antiulcerogenic activity in Kunming mouse assessed as inhibition of ethanol-induced gastric ulcer at 3.9 mg/kg, po qd for 5 days measured 1 hr post last dose relative to control
Mus musculus [10] = experiment: Antiulcerogenic activity in Kunming mouse assessed as inhibition of ethanol-induced gastric ulcer at 4.6 mg/kg, po qd for 5 days measured 1 hr post last dose relative to control
Mus musculus [11] = experiment: Antiulcerogenic activity in Kunming mouse assessed as inhibition of ethanol-induced gastric ulcer at 4.7 mg/kg, po qd for 5 days measured 1 hr post last dose relative to control
Mus musculus [12] = experiment: Antiulcerogenic activity in Kunming mouse assessed as inhibition of ethanol-induced gastric ulcer at 4.5 mg/kg, po qd for 5 days measured 1 hr post last dose relative to control
Mus musculus [13] = experiment: Antiulcerogenic activity in Kunming mouse assessed as inhibition of ethanol-induced gastric ulcer at 13.4 mg/kg, po qd for 5 days measured 1 hr post last dose relative to control
Mus musculus [14] = experiment: Antiulcerogenic activity in Kunming mouse assessed as inhibition of ethanol-induced gastric ulcer at 3 mg/kg, po qd for 5 days measured 1 hr post last dose relative to control

Cc1cc(S(=O)(=O)Nc2cccc(Br)c2)c2c(C)ccc(C(C)C)cc1-2
inhibition in vivo at 4.3 mg/kg (Mus musculus [1]): 51.3%

COc1ccc(NS(=O)(=O)c2cc(C)c3cc(C(C)C)ccc(C)c2-3)c(OC)c1
inhibition in vivo at 4.1 mg/kg (Mus musculus [2]): 52.8%

Cc1cc(S(=O)(=O)NC(C)C)c2c(C)ccc(C(C)C)cc1-2
inhibition in vivo at 3.2 mg/kg (Mus musculus [3]): 18.7%

Cc1cc(S(=O)(=O)Nc2cccc3ccccc23)c2c(C)ccc(C(C)C)cc1-2
inhibition in vivo at 4 mg/kg (Mus musculus [4]): 50.5%

Cc1cc(S(=O)(=O)NCC(C)C)c2c(C)ccc(C(C)C)cc1-2
inhibition in vivo at 3.3 mg/kg (Mus musculus [5]): 33.9%

CCCNS(=O)(=O)c1cc(C)c2cc(C(C)C)ccc(C)c1-2
inhibition in vivo at 3.2 mg/kg (Mus musculus [3]): 33%

Cc1ccc(NS(=O)(=O)c2cc(C)c3cc(C(C)C)ccc(C)c2-3)cc1
inhibition in vivo at 3.7 mg/kg (Mus musculus [6]): 23.1%

CCNS(=O)(=O)c1cc(C)c2cc(C(C)C)ccc(C)c1-2
inhibition in vivo at 3.1 mg/kg (Mus musculus [7]): 24.1%

Cc1cc(S(=O)(=O)NC2CCCCC2)c2c(C)ccc(C(C)C)cc1-2
inhibition in vivo at 3.6 mg/kg (Mus musculus [8]): 50.9%

Cc1cc(S(=O)(=O)NCc2ccccc2)c2c(C)ccc(C(C)C)cc1-2
inhibition in vivo at 3.7 mg/kg (Mus musculus [6]): 2.46%

Cc1cc(S(=O)(=O)Nc2ccc(Cl)cc2)c2c(C)ccc(C(C)C)cc1-2
inhibition in vivo at 3.9 mg/kg (Mus musculus [9]): 24.8%

Cc1cc(S(=O)(=O)Nc2ccc(N)cc2)c2c(C)ccc(C(C)C)cc1-2
inhibition in vivo at 3.1 mg/kg (Mus musculus [7]): 45.2%

Cc1cc(S(=O)(=O)Nc2ccc(/N=C/c3ccccc3)cc2)c2c(C)ccc(C(C)C)cc1-2
inhibition in vivo at 4.6 mg/kg (Mus musculus [10]): 17.1%

Cc1cc(S(=O)(=O)Nc2ccc(/N=C/c3ccccc3O)cc2)c2c(C)ccc(C(C)C)cc1-2
inhibition in vivo at 4.7 mg/kg (Mus musculus [11]): 28.7%

Cc1cc(S(=O)(=O)Nc2ccc(/N=C/c3cccs3)cc2)c2c(C)ccc(C(C)C)cc1-2
inhibition in vivo at 4.6 mg/kg (Mus musculus [10]): 50.2%

COc1ccc(/C=N\NS(=O)(=O)c2cc(C)c3cc(C(C)C)ccc(C)c2-3)cc1
inhibition in vivo at 4.1 mg/kg (Mus musculus [2]): 4.08%

Cc1cc(S(=O)(=O)N/N=C\c2ccc(C(F)(F)F)cc2)c2c(C)ccc(C(C)C)cc1-2
inhibition in vivo at 4.5 mg/kg (Mus musculus [12]): 24.8%

Cc1cc(S(=O)(=O)N/N=C\c2ccccc2O)c2c(C)ccc(C(C)C)cc1-2
inhibition in vivo at 4 mg/kg (Mus musculus [4]): 12.2%

Cc1cc(S(=O)(=O)N/N=C\c2cccs2)c2c(C)ccc(C(C)C)cc1-2
inhibition in vivo at 3.9 mg/kg (Mus musculus [9]): 30.7%

COc1ccc2[nH]c([S+]([O-])Cc3ncc(C)c(OC)c3C)nc2c1 (stereo unspecified) [OMEPRAZOLE]
inhibition in vivo at 13.4 mg/kg (Mus musculus [13]): 36.7%

Cc1cc(S(=O)(=O)O)c2c(C)ccc(C(C)C)cc1-2 [SODIUM GUALENATE]
inhibition in vivo at 3 mg/kg (Mus musculus [14]): 32.6%
